Data reported in publication PMC9174938, “1,4-Dihydropyridine as a Promising Scaffold for Novel Antimicrobials Against Helicobacter pylori” (Frontiers in Microbiology, 2022).

What follows are molecules tested against T1, HsrA (HP1043) (Helicobacter pylori, UniProt O25684) (assay: isothermal titration calorimetry). Details: read-out: ITC^1 / Kd.
T1 construct: gene HP_1043
T1 sequence (O25684 1-223): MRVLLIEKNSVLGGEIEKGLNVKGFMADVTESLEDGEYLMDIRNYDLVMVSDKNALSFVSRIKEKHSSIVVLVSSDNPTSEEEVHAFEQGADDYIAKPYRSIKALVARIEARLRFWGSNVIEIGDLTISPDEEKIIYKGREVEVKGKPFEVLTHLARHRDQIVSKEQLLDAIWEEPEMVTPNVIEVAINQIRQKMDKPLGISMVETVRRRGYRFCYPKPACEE
Format: binding
Description: isothermal titration calorimetry on HsrA (HP1043)

| SMILES | Kd [µM] |
| --- | --- |
| CC1=C(C(=O)OCc2ccccc2)C(c2cc(Br)cc(Br)c2O)C2=C(CCC(C)(C)C2=O)N1 (stereo not drawn) [HM4] | 4 |
| CC1=C(C(=O)OCc2ccccc2)C(c2cc(Br)cc([N+](=O)[O-])c2O)C2=C(CCC(C)(C)C2=O)N1 (stereo not drawn) [HM6] | 5.4 |
| CC1=C(C(=O)OCC(C)C)C(c2cc([N+](=O)[O-])ccc2O)C2=C(CC(C)(C)CC2=O)N1 (stereo not drawn) [MD1] | 3.5 |
| CC1=C(C(=O)OCC(C)C)C(c2cccc([N+](=O)[O-])c2)C2=C(CC(C)(C)CC2=O)N1 (stereo not drawn) [MD2] | 16 |
| CC1=C(C(=O)OCC(C)C)C(c2cc(Br)ccc2O)C2=C(CC(C)(C)CC2=O)N1 (stereo not drawn) [MD6] | 25 |
| CC1=C(C(=O)OCC(C)C)C(c2cc(Br)cc([N+](=O)[O-])c2O)C2=C(CC(C)(C)CC2=O)N1 (stereo not drawn) [MD7] | 23 |
